# Test results as given in patent US9527842B2, “Inhibitors of human immunodeficiency virus replication” (priority 2013, dated 2016).
# System: recombinant NL-Rluc virus
# Experiment: Inhibition of HIV replication (NL-RLuc luciferase reporter virus in MT-2 cells)
# Assay type: cell-based
# Details: Human immunodeficiency virus 1, MT2, 120 h
row,SMILES,EC50
1,"Cc1ccc2c(c1)-c1cccc(c1)-c1cc3c(c([C@H](OC(C)(C)C)C(=O)O)c(C)cn3n1)N1CCC(C)(CC1)OCCCCC[C@H](C)O2 [Example 30, (2S)-2-(tert-Butoxy)-2-[(22S)-4,17,22,29-tetramethyl-21,28-dioxa-1,6,35-triazahexacyclo[27.2.2.1^6,^9.1^10,^14.0^2,^7.0^15,^20]pentatriaconta-2,4,7,9 (35),10(34),11,13,15(20),16,18-decaen-3-yl]acetic acid]",84 nM
2,"Cc1cn2nc(-c3ncc(Cc4ccc(F)cc4)o3)cc2c(N2CCC(C)(C)CC2)c1[C@H](OC(C)(C)C)C(=O)O [Example 5, (S)-2-(tert-Butoxy)-2-(4-(4,4-dimethylpiperidin-1-yl)-2-(5-(4-fluorobenzyl)oxazol-2-yl)-6-methylpyrazolo[1,5-a]pyridin-5-yl)acetic acid]",5 nM
3,"Cc1cn2nc3cc2c(c1[C@H](OC(C)(C)C)C(=O)O)N1CCC(C)(CC1)OCCCC[C@H](C)Oc1ccc(F)cc1-c1cccc-3c1 [Example 36, (2S)-2-(tert-Butoxy)-2-[(22S)-17-fluoro-4,22,28-trimethyl-21,27-dioxa-1,6,34-triazahexacyclo[26.2.2.1^6,^9.1^10,^14.0^2,^7.0^15,^20]tetratriaconta-2,4,7,9(34),10(33),11,13,15(20),16,18-decaen-3-yl]acetic acid]",50 nM
4,"Cc1ccc2c(c1F)-c1cccc(c1)-c1cc3c(c([C@H](OC(C)(C)C)C(=O)O)c(C)cn3n1)N1CCC(C)(CC1)OCCCC[C@H](C)O2 [Example 39, (2S)-2-(tert-Butoxy)-2-[(22S)-16-fluoro-4,17,22,28-tetramethyl-21,27-dioxa-1,6,34-triazahexacyclo[26.2.2.1^6,^9.1^10,^14.0^2,^7.0^15,^20]tetratriaconta-2,4,7,9(34),10(33),11,13,15(20),16,18-decaen-3-yl]acetic acid]",38 nM
5,"Cc1cn2nc(-c3ncc(Cc4ccc(F)cc4)s3)cc2c(N2CCC(C)(C)CC2)c1[C@H](OC(C)(C)C)C(=O)O [Example 4, (S)-2-(tert-Butoxy)-2-(4-(4,4-dimethylpiperidin-1-yl)-2-(5-(4-fluorobenzyl)thiazol-2-yl)-6-methylpyrazolo[1,5-a]pyridin-5-yl)acetic acid]",18 nM
6,"Cc1cn2nc3cc2c(c1[C@H](OC(C)(C)C)C(=O)O)N1CCC(C)(CC/C=C/COc2cc(F)ccc2CNC3=O)CC1 [Example 26, (2S)-2-(tert-Butoxy)-2-[(21E)-16-fluoro-4,25-dimethyl-10-oxo-19-oxa-1,6,11,30-tetraazapentacyclo[23.2.2.1^6,^9.0^2,^7.0^13,^18]triaconta-2,4,7,9(30),13(18),14,16,21-octaen-3-yl]acetic acid]",6 nM
7,"Cc1cn2nc3cc2c(c1[C@H](OC(C)(C)C)C(=O)O)N1CCC(C)(CC1)OCCCC[C@H](C)Oc1ccc(C#N)cc1-c1cccc-3c1 [Example 42, (2S)-2-(tert-Butoxy)-2-[(22S)-17-cyano-4,22,28-trimethyl-21,27-dioxa-1,6,34-triazahexacyclo[26.2.2.1^6,^9.1^10,^14.0^2,^7.0^15,^20]tetratriaconta-2,4,7,9 (34),10(33),11,13,15(20),16,18-decaen-3-yl]acetic acid]",7 nM
8,"Cc1ccc2c(c1)-c1cccc(c1)-c1cc3c(c([C@H](OC(C)(C)C)C(=O)O)c(C)cn3n1)N1CCC(C)(CC1)OCCC[C@H](C)CO2 (single isomer, unassigned) [Example 32]",178 nM
9,"CCC[C@H](C)Oc1cccc(F)c1-c1cccc(-c2cc3c(N4CCC(C)(O)CC4)c([C@H](OC(C)(C)C)C(=O)O)c(C)cn3n2)c1 [Example 35, (2S)-2-(tert-Butoxy)-2-[2-(3-{2-fluoro-6-[(2S)-pentan-2-yloxy]phenyl}phenyl)-4-(4-hydroxy-4-methylpiperidin-1-yl)-6-methylpyrazolo[1,5-a]pyridin-5-yl]acetic acid]",607 nM
10,"Cc1cn2nc3cc2c(c1[C@H](OC(C)(C)C)C(=O)O)N1CCC(C)(CC1)OCCCC[C@H](C)Oc1cccc(F)c1-c1cccc-3c1 [Example 34, (2S)-2-(tert-Butoxy)-2-[(22S)-16-fluoro-4,22,28-trimethyl-21,27-dioxa-1,6,34-triazahexacyclo[26.2.2.1^6,^9.1^10,^14.0^2,^7.0^15,^20]tetratriaconta-2,4,7,9(34),10(33),11,13,15(20),16,18-decaen-3-yl]acetic acid]",14 nM
11,"Cc1ccc2c(c1)-c1cccc(c1)-c1cc3c(c([C@H](OC(C)(C)C)C(=O)O)c(C)cn3n1)N1CCC(C)(CC1)OCCCCC[C@@H](C)O2 (single isomer, unassigned) [Example 31]",258 nM
12,"Cc1ccc2c(c1F)-c1cccc(c1)-c1cc3c(c([C@H](OC(C)(C)C)C(=O)O)c(C)cn3n1)N1CCC(C)(CC1)OCCCC[C@@H](C)O2 [Example 40, (2S)-2-(tert-Butoxy)-2-[(22R)-16-fluoro-4,17,22,28-tetramethyl-21,27-dioxa-1,6,34-triazahexacyclo[26.2.2.1^6,^9.1^10,^14.0^2,^7.0^15,^20]tetratriaconta-2,4,7,9(34),10(33),11,13,15(20),16,18-decaen-3-yl]acetic acid]",2350 nM
13,"CCCOC1(C)CCN(c2c([C@H](OC(C)(C)C)C(=O)O)c(C)cn3nc(-c4cccc(-c5c(O[C@@H](C)CCC)ccc(C)c5F)c4)cc23)CC1 [Example 41, (2S)-2-(tert-Butoxy)-2-[2-(3-{2-fluoro-3-methyl-6-[(2S)-pentan-2-yloxy]phenyl}phenyl)-6-methyl-4-(4-methyl-4-propoxypiperidin-1-yl)pyrazolo[1,5-a]pyridin-5-yl]acetic acid]",728 nM
14,"Cc1ccc2c(c1)-c1cccc(c1)-c1cc3c(c([C@H](OC(C)(C)C)C(=O)O)c(C)cn3n1)N1CCC(C)(CC1)OCCC[C@@H](C)CO2 (single isomer, unassigned) [Example 33]",116 nM
15,Cc1cc(CNC(=O)c2cc3c(-c4cc(F)c5c(c4C)CCCO5)c([C@H](OC(C)(C)C)C(=O)O)c(C)cn3n2)ccc1F [Example 1],3 nM
16,"Cc1cn2nc3cc2c(c1[C@H](OC(C)(C)C)C(=O)O)N1CCC(C)(CC1)OCCC[C@H](C)Oc1ccc(F)cc1-c1cccc-3c1 [Example 37, (2S)-2-(tert-Butoxy)-2-[(22S)-17-fluoro-4,22,27-trimethyl-21,26-dioxa-1,6,33-triazahexacyclo[25.2.2.1^6,^9.1^10,^14.0^2,^7.0^15,^20]tritriaconta-2,4,7,9(33),10(32),11,13,15(20),16,18-decaen-3-yl]acetic acid]",29 nM
17,"Cc1ccc2c(c1)-c1cccc(c1)-c1cc3c(c([C@H](OC(C)(C)C)C(=O)O)c(C)cn3n1)N1CCC(C)(CC1)OCCCC[C@H](C)O2 [Example 29, (2S)-2-(tert-Butoxy)-21[(22S)-4,17,22,28-tetramethyl-21,27-dioxa-1,6,34-triazahexacyclo[26.2.2.1^6,^9.1^10,^14.0^2,^7.0^15,^20]tetratriaconta-2,4,7,9 (34),10(33),11,13,15(20),16,18-decaen-3-yl]acetic acid]",40 nM
18,"Cc1cc(CNC(=O)c2cc3c(N4CCC(C)(C)CC4)c([C@H](OC(C)(C)C)C(=O)O)c(C)cn3n2)ccc1F [Example 3, (S)-2-(tert-Butoxy)-2-(4-(4,4-dimethylpiperidin-1-yl)-2-((4-fluoro-3-methylbenzyl)carbamoyl)-6-methylpyrazolo[1,5-a]pyridin-5-yl)acetic acid]",17 nM
19,"Cc1cn2nc3cc2c(c1[C@H](OC(C)(C)C)C(=O)O)N1CCC(C)(CC1)OCCCC[C@H](C)Oc1cc(F)ccc1-c1cccc-3c1 [Example 38, (2S)-2-(tert-Butoxy)-2-[(22S)-18-fluoro-4,22,28-trimethyl-21,27-dioxa-1,6,34-triazahexacyclo[26.2.2.1^6,^9.1^10,^14.0^2,^7.0^15,^20]tetratriaconta-2,4,7,9 (34),10(33),11,13,15 (20),16,18-decaen-3-yl]acetic acid]",30 nM
20,"Cc1cn2nc3cc2c(c1[C@H](OC(C)(C)C)C(=O)O)N1CCC(C)(CC1)OC/C=C/COc1ccccc1Cc1cnc-3s1 [Example 27, (2S)-2-(tert-Butoxy)-2-[(23E)-4,27-dimethyl-21,26-dioxa-32-thia-1,6,11,33-tetraazahexacyclo[25.2.2.1^6,^9.1^10,^13.0^2,^7.0^15,^20]tritriaconta-2,4,7,9 (33),10,12,15(20),16,18,23-decaen-3-yl]acetic acid]",4 nM
21,"C=CCOC1(C)CCN(c2c([C@H](OC(C)(C)C)C(=O)O)c(C)cn3nc(-c4cccc(Br)c4)cc23)CC1 [Example 28, (S)-2-(4-(4-(Allyloxy)-4-methylpiperidin-1-yl)-2-(3-bromophenyl)-6-methylpyrazolo[1,5-a]pyridin-5-yl)-2-(tert-butoxy)acetic acid]",138 nM
22,"Cc1cn2nc3ccccc3c2c(-c2cc(F)c3c(c2C)CCCO3)c1[C@H](OC(C)(C)C)C(=O)O [Example 25, (2S)-2-(tert-Butoxy)-2-(10-(8-fluoro-5-methylchroman-6-yl)-8-methylpyrido[1,2-b]indazol-9-yl)acetic acid]",37 nM
23,"Cc1cc(CNC(=O)c2cc3c(-c4ccc5c6c(ccnc46)CCO5)c([C@H](OC(C)(C)C)C(=O)O)c(C)cn3n2)ccc1F (atropisomer, axis not shown) [Example 2, (2S)-2-(tert-Butoxy)-2-(4-(2,3-dihydropyrano[4,3,2-de]quinolin-7-yl)-2-((4-fluoro-3-methylbenzyl)carbamoyl)-6-methylpyrazolo[1,5-a]pyridin-5-yl)acetic acid]",63 nM

# System: not given
# Experiment: not given
# Details: from C=CCOC1(C)CCN(c2c([C@H](OC(C)(C)C)C(=O)OC)c(C)cn3nc(-c4cccc(-c5c(F)cccc5O[C@@H](C)CC=C)c4)cc23)CC1; rcm bond; 20-membered ring; Hoveyda-Grubbs II; then H2, Pd/C; then NaOH; DCE; 2.0 mM; 85.0 °C; 2.0 h; 3 steps
row,SMILES,"ring closure, yield after HPLC"
1,COC(=O)[C@@H](OC(C)(C)C)c1c(C)cn2nc3cc2c1N1CCC(C)(CC1)OCC=CC[C@H](C)Oc1cccc(F)c1-c1cccc-3c1,19.6%

# Same assay, conditions: from C=CCOC1(C)CCN(c2c([C@H](OC(C)(C)C)C(=O)OC)c(C)cn3nc(-c4cccc(-c5ccc(F)cc5O[C@@H](C)CC=C)c4)cc23)CC1; rcm bond; 20-membered ring; Hoveyda-Grubbs II; then H2, Pd/C; then NaOH; DCE; 1.57 mM; 85.0 °C; 2.0 h; 3 steps
row,SMILES,"ring closure, yield after HPLC"
1,COC(=O)[C@@H](OC(C)(C)C)c1c(C)cn2nc3cc2c1N1CCC(C)(CC1)OCC=CC[C@H](C)Oc1cc(F)ccc1-c1cccc-3c1,49.8%
